Laboratory results published in PMC5218480 (PLoS ONE, 2017).

Tested on: MV-4-11 cells
Experiment: Gene expression microarray analysis (Affymetrix PrimeView) and GSEA
Format: cell-based, human
Parameters: RFU PODN (11730768_x_at) / Fold change /veh PODN (11730768_x_at) / RFU LINC00158 (11744669_a_at) / Fold change /veh LINC00158 (11744669_a_at) / RFU DUSP10 (11751237_a_at) / Fold change /veh DUSP10 (11751237_a_at) / RFU ID3 (11757404_x_at) / Fold change /veh ID3 (11757404_x_at) / RFU PLEKHG5 (11737974_s_at) / Fold change /veh PLEKHG5 (11737974_s_at) / RFU LRRC4B (11730491_at) / Fold change /veh LRRC4B (11730491_at) / RFU GIMAP4 (11747438_a_at) / Fold change /veh GIMAP4 (11747438_a_at) / RFU KRT8 (11758183_x_at) / Fold change /veh KRT8 (11758183_x_at) / RFU CNN1 (11734310_a_at) / Fold change /veh CNN1 (11734310_a_at) / RFU VPS37D (11726825_at) / Fold change /veh VPS37D (11726825_at) / RFU C10orf10 (11716522_x_at) / Fold change /veh C10orf10 (11716522_x_at) / RFU KIR2DL2 /// KIR2DL4 /// KIR2DL5A /// KIR2DL5B /// KIR2DS1 /// KIR2DS2 /// KIR2DS3 /// KIR2DS4 /// KIR3DL3 /// KIR3DL3 /// KIR3DS1 (11738374_at) / Fold change /veh KIR2DL2 /// KIR2DL4 /// KIR2DL5A /// KIR2DL5B /// KIR2DS1 /// KIR2DS2 /// KIR2DS3 /// KIR2DS4 /// KIR3DL3 /// KIR3DL3 /// KIR3DS1 (11738374_at) / RFU C1QL1 (11718748_at) / Fold change /veh C1QL1 (11718748_at) / RFU TMPRSS4 (11747572_a_at) / Fold change /veh TMPRSS4 (11747572_a_at) / RFU HAMP (11756126_x_at) / Fold change /veh HAMP (11756126_x_at) / RFU RNFT2 (11725882_a_at) / Fold change /veh RNFT2 (11725882_a_at) / RFU NR4A2 (11747474_a_at) / Fold change /veh NR4A2 (11747474_a_at) / RFU ABCC12 (11746883_a_at) / Fold change /veh ABCC12 (11746883_a_at) / RFU TMEM136 (11760407_x_at) / Fold change /veh TMEM136 (11760407_x_at) / RFU CLDN22 /// WWC2 (11732394_at) / Fold change /veh CLDN22 /// WWC2 (11732394_at) / RFU HLA-DPB1 (11760878_x_at) / Fold change /veh HLA-DPB1 (11760878_x_at) / RFU SPINT1 (11716480_a_at) / Fold change /veh SPINT1 (11716480_a_at) / RFU GAP43 (11754022_s_at) / Fold change /veh GAP43 (11754022_s_at) / RFU A4GNT (11735810_at) / Fold change /veh A4GNT (11735810_at) / RFU PRB3 (11715151_x_at) / Fold change /veh PRB3 (11715151_x_at) / RFU TUBB4B (11761932_at) / Fold change /veh TUBB4B (11761932_at) / RFU CAPN14 (11732068_a_at) / Fold change /veh CAPN14 (11732068_a_at) / RFU TMCC2 (11721928_a_at) / Fold change /veh TMCC2 (11721928_a_at) / RFU IRGQ (11745062_a_at) / Fold change /veh IRGQ (11745062_a_at) / RFU FAM174B (11720279_a_at) / Fold change /veh FAM174B (11720279_a_at) / RFU TMPRSS4 (11748680_a_at) / Fold change /veh TMPRSS4 (11748680_a_at) / RFU FAM212B (11763350_a_at) / Fold change /veh FAM212B (11763350_a_at) / RFU PLEKHG5 (11743358_a_at) / Fold change /veh PLEKHG5 (11743358_a_at) / RFU ZSCAN30 (11745921_a_at) / Fold change /veh ZSCAN30 (11745921_a_at) / RFU CMKLR1 (11741424_a_at) / Fold change /veh CMKLR1 (11741424_a_at) / RFU LOC101060620 /// MAPK8IP1 (11723275_at) / Fold change /veh LOC101060620 /// MAPK8IP1 (11723275_at) / RFU SPTSSB (11747773_x_at) / Fold change /veh SPTSSB (11747773_x_at) / RFU PRSS12 (11739890_at) / Fold change /veh PRSS12 (11739890_at) / RFU BIN1 (11741810_x_at) / Fold change /veh BIN1 (11741810_x_at) / RFU WNT11 (11732464_a_at) / Fold change /veh WNT11 (11732464_a_at) / RFU C10orf10 (11716521_a_at) / Fold change /veh C10orf10 (11716521_a_at) / RFU C5orf56 (11738089_at) / Fold change /veh C5orf56 (11738089_at) / RFU CYB561 (11721691_x_at) / Fold change /veh CYB561 (11721691_x_at) / RFU ANKRD19P (11752326_a_at) / Fold change /veh ANKRD19P (11752326_a_at) / RFU OR2T12 /// OR2T33 /// OR2T8 (11738714_s_at) / Fold change /veh OR2T12 /// OR2T33 /// OR2T8 (11738714_s_at) / RFU VCAN (11748164_a_at) / Fold change /veh VCAN (11748164_a_at) / RFU JSRP1 (11732532_at) / Fold change /veh JSRP1 (11732532_at) / RFU KRTAP10-11 (11738290_x_at) / Fold change /veh KRTAP10-11 (11738290_x_at) / RFU MYO3A (11730013_a_at) / Fold change /veh MYO3A (11730013_a_at) / RFU EBF3 (11725865_a_at) / Fold change /veh EBF3 (11725865_a_at) / RFU CAMK2N1 (11719241_x_at) / Fold change /veh CAMK2N1 (11719241_x_at) / RFU C5orf56 (11738088_a_at) / Fold change /veh C5orf56 (11738088_a_at) / RFU OLFML3 (11715873_a_at) / Fold change /veh OLFML3 (11715873_a_at) / RFU LOC100653217 /// NTM (11731650_a_at) / Fold change /veh LOC100653217 /// NTM (11731650_a_at) / RFU MAPK11 (11762145_a_at) / Fold change /veh MAPK11 (11762145_a_at) / RFU FIZ1 (11724087_x_at) / Fold change /veh FIZ1 (11724087_x_at) / RFU OASL (11726364_x_at) / Fold change /veh OASL (11726364_x_at) / RFU SOX15 (11748057_x_at) / Fold change /veh SOX15 (11748057_x_at) / RFU CD79A (11719716_a_at) / Fold change /veh CD79A (11719716_a_at) / RFU HIST1H1D (11736915_at) / Fold change /veh HIST1H1D (11736915_at) / RFU CASKIN2 (11723855_a_at) / Fold change /veh CASKIN2 (11723855_a_at) / RFU LOC730098 (11760151_x_at) / Fold change /veh LOC730098 (11760151_x_at) / RFU OR4N2 (11742367_at) / Fold change /veh OR4N2 (11742367_at) / RFU PRRT2 (11749266_a_at) / Fold change /veh PRRT2 (11749266_a_at) / RFU SNX32 (11753110_a_at) / Fold change /veh SNX32 (11753110_a_at) / RFU CDHR5 (11726645_a_at) / Fold change /veh CDHR5 (11726645_a_at) / RFU RCAN1 (11760418_a_at) / Fold change /veh RCAN1 (11760418_a_at) / RFU FAM167A (11723789_a_at) / Fold change /veh FAM167A (11723789_a_at) / RFU FAM26E (11764081_at) / Fold change /veh FAM26E (11764081_at) / RFU ISYNA1 (11749810_s_at) / Fold change /veh ISYNA1 (11749810_s_at) / RFU ACY1 (11761880_at) / Fold change /veh ACY1 (11761880_at) / RFU 11764098_at / Fold change /veh 11764098_at / RFU SAMD14 (11745864_x_at) / Fold change /veh SAMD14 (11745864_x_at) / RFU NPB (11741838_a_at) / Fold change /veh NPB (11741838_a_at) / RFU TMPRSS6 (11731388_a_at) / Fold change /veh TMPRSS6 (11731388_a_at) / RFU KRTAP10-2 (11738614_at) / Fold change /veh KRTAP10-2 (11738614_at) / RFU ARHGAP8 /// PRR5-ARHGAP8 (11727945_x_at) / Fold change /veh ARHGAP8 /// PRR5-ARHGAP8 (11727945_x_at) / RFU KRTAP5-7 /// NADSYN1 (11734609_at) / Fold change /veh KRTAP5-7 /// NADSYN1 (11734609_at) / RFU RASL12 (11751679_a_at) / Fold change /veh RASL12 (11751679_a_at) / RFU CDKN2B (11736163_a_at) / Fold change /veh CDKN2B (11736163_a_at) / RFU PRF1 (11729649_at) / Fold change /veh PRF1 (11729649_at) / RFU, ZNF638 /// ZNF638-IT1 / Fold change vs veh, ZNF638 /// ZNF638-IT1 / RFU, PANK3 / Fold change vs veh, PANK3 / RFU, SH3YL1 / Fold change vs veh, SH3YL1 / RFU, ZEB2 / Fold change vs veh, ZEB2 / RFU, NRIP1 / Fold change vs veh, NRIP1 / RFU, PTTG1IP / Fold change vs veh, PTTG1IP / RFU, CAPN2 / Fold change vs veh, CAPN2 / RFU, MED14 / Fold change vs veh, MED14 / RFU, SNORA58 / Fold change vs veh, SNORA58 / RFU, C1orf63 / Fold change vs veh, C1orf63 / RFU, LRRFIP1 / Fold change vs veh, LRRFIP1 / RFU, NDUFAF7 / Fold change vs veh, NDUFAF7 / RFU, SLC12A2 / Fold change vs veh, SLC12A2 / RFU, IBTK / Fold change vs veh, IBTK / RFU, ESF1 / Fold change vs veh, ESF1 / Fold change vs veh, TMEM50B / RFU, TAOK1 / Fold change vs veh, TAOK1 / RFU, ACBD3 / Fold change vs veh, ACBD3 / RFU, TMA16 / Fold change vs veh, TMA16 / RFU, RWDD3 / Fold change vs veh, RWDD3 / RFU, BCAT1 / Fold change vs veh, BCAT1 / RFU, EDEM3 / Fold change vs veh, EDEM3 / RFU, TMEM33 / Fold change vs veh, TMEM33 / RFU, WDR75 / Fold change vs veh, WDR75 / RFU, AHCTF1 / Fold change vs veh, AHCTF1 / RFU, TFRC / Fold change vs veh, TFRC / RFU, ZDHHC17 / Fold change vs veh, ZDHHC17 / RFU, NOM1 / Fold change vs veh, NOM1 / RFU, ARL8B / Fold change vs veh, ARL8B / RFU, ZBTB11 / Fold change vs veh, ZBTB11 / RFU, TAMM41 / Fold change vs veh, TAMM41 / RFU, KIAA1704 /// LOC100996395 / Fold change vs veh, KIAA1704 /// LOC100996395 / RFU, ING1 / Fold change vs veh, ING1 / RFU, TRMT61B / Fold change vs veh, TRMT61B / RFU, FUBP3 / Fold change vs veh, FUBP3 / RFU, TP53 / Fold change vs veh, TP53 / RFU, TNKS2 / Fold change vs veh, TNKS2 / RFU, ZFP14 / Fold change vs veh, ZFP14 / RFU, ACTR2 / Fold change vs veh, ACTR2 / RFU, PPP3R1 / Fold change vs veh, PPP3R1 / RFU, PIK3R1 / Fold change vs veh, PIK3R1 / RFU, HNRNPA1 / Fold change vs veh, HNRNPA1 / RFU, RNF170 / Fold change vs veh, RNF170 / RFU, ZNF28 / Fold change vs veh, ZNF28 / RFU, RNGTT / Fold change vs veh, RNGTT / RFU, OGT / Fold change vs veh, OGT / RFU, BRD1 / Fold change vs veh, BRD1 / RFU, MARS / Fold change vs veh, MARS / RFU, ZNF655 / Fold change vs veh, ZNF655 / RFU, FAHD1 / Fold change vs veh, FAHD1 / RFU, BDP1 / Fold change vs veh, BDP1 / RFU, LRRCC1 / Fold change vs veh, LRRCC1 / RFU, ARID1A / Fold change vs veh, ARID1A / RFU, ZNF146 / Fold change vs veh, ZNF146 / RFU, ZNF330 / Fold change vs veh, ZNF330 / RFU, GPN3 / Fold change vs veh, GPN3 / RFU, C9orf123 / Fold change vs veh, C9orf123 / RFU, N4BP2L2 / Fold change vs veh, N4BP2L2 / RFU, ARFIP1 / Fold change vs veh, ARFIP1 / RFU, FAM179B / Fold change vs veh, FAM179B / RFU, BCL10 / Fold change vs veh, BCL10 / RFU, UHRF1BP1L / Fold change vs veh, UHRF1BP1L / RFU, BET1 / Fold change vs veh, BET1 / RFU, CNOT2 / Fold change vs veh, CNOT2 / RFU, ZNF268 / Fold change vs veh, ZNF268 / Fold change vs veh, ZNF507 / RFU, DGCR2 / Fold change vs veh, DGCR2 / RFU, WDSUB1 / Fold change vs veh, WDSUB1 / Fold change vs veh, HSP90B1 /// MIR3652 / RFU, ADSS / Fold change vs veh, ADSS / RFU, GK / Fold change vs veh, GK / RFU, ZNF148 / Fold change vs veh, ZNF148 / RFU, TAF9 / Fold change vs veh, TAF9 / RFU, SLC1A5 / Fold change vs veh, SLC1A5 / RFU, SLMO2 / Fold change vs veh, SLMO2 / RFU, ABCC4 / Fold change vs veh, ABCC4 / RFU, LOC101060439 /// RAP1B / Fold change vs veh, LOC101060439 /// RAP1B / RFU, RFX7 / Fold change vs veh, RFX7 / RFU, GTPBP10 / Fold change vs veh, GTPBP10 / RFU, CNEP1R1 / Fold change vs veh, CNEP1R1 / RFU, BIVM-ERCC5 /// ERCC5 / Fold change vs veh, BIVM-ERCC5 /// ERCC5 / RFU, ILF3 / Fold change vs veh, ILF3 / RFU 11762660_at / Fold change /veh 11762660_at / RFU VCAN (11757783_s_at) / Fold change /veh VCAN (11757783_s_at) / RFU DDX43 (11728927_at) / Fold change /veh DDX43 (11728927_at) / RFU KRT8 (11758188_x_at) / Fold change /veh KRT8 (11758188_x_at) / RFU NKD1 (11759106_at) / Fold change /veh NKD1 (11759106_at) / RFU SRD5A1 (11742802_a_at) / Fold change /veh SRD5A1 (11742802_a_at) / RFU TPSAB1 /// TPSB2 (11721975_s_at) / Fold change /veh TPSAB1 /// TPSB2 (11721975_s_at) / RFU GSTM3 (11746129_a_at) / Fold change /veh GSTM3 (11746129_a_at) / RFU IL23R (11737362_x_at) / Fold change /veh IL23R (11737362_x_at) / RFU TMEM51 (11727254_a_at) / Fold change /veh TMEM51 (11727254_a_at) / RFU PIWIL2 (11732686_x_at) / Fold change /veh PIWIL2 (11732686_x_at) / RFU ORM1 (11744905_x_at) / Fold change /veh ORM1 (11744905_x_at) / RFU CCDC152 (11743942_at) / Fold change /veh CCDC152 (11743942_at) / RFU ECM1 (11717891_a_at) / Fold change /veh ECM1 (11717891_a_at) / RFU IL23R (11748794_a_at) / Fold change /veh IL23R (11748794_a_at) / RFU TNFAIP8L3 (11732012_x_at) / Fold change /veh TNFAIP8L3 (11732012_x_at) / RFU MBOAT4 (11741988_at) / Fold change /veh MBOAT4 (11741988_at) / RFU 11764193_at / Fold change /veh 11764193_at / RFU TMEM53 (11763286_at) / Fold change /veh TMEM53 (11763286_at) / RFU MAGEB2 (11727129_at) / Fold change /veh MAGEB2 (11727129_at) / RFU TMEM200A (11744735_a_at) / Fold change /veh TMEM200A (11744735_a_at) / RFU CCDC152 (11751479_a_at) / Fold change /veh CCDC152 (11751479_a_at) / RFU FAM211A (11726209_a_at) / Fold change /veh FAM211A (11726209_a_at) / RFU RGS16 (11746705_a_at) / Fold change /veh RGS16 (11746705_a_at) / RFU VCAN (11755009_s_at) / Fold change /veh VCAN (11755009_s_at) / RFU RHOB (11743442_s_at) / Fold change /veh RHOB (11743442_s_at) / RFU RGS16 (11720943_a_at) / Fold change /veh RGS16 (11720943_a_at) / RFU RGS16 (11720944_at) / Fold change /veh RGS16 (11720944_at) / RFU, VPS4B / Fold change vs veh, VPS4B / RFU, CREB1 / Fold change vs veh, CREB1 / RFU, DNAJC13 / Fold change vs veh, DNAJC13 / RFU, GNAQ / Fold change vs veh, GNAQ / RFU, CDK5R1 / Fold change vs veh, CDK5R1 / RFU, ZRANB3 / Fold change vs veh, ZRANB3 / RFU, CUL4A / Fold change vs veh, CUL4A / RFU, CCNY / Fold change vs veh, CCNY / RFU, UFL1 / Fold change vs veh, UFL1 / RFU, COG3 / Fold change vs veh, COG3 / RFU, DIAPH2 / Fold change vs veh, DIAPH2 / RFU, SKA2 / Fold change vs veh, SKA2 / RFU, AFF3 / Fold change vs veh, AFF3 / RFU, LMF1 / Fold change vs veh, LMF1 / RFU, IPO11 / Fold change vs veh, IPO11 / RFU, DFFB / Fold change vs veh, DFFB / RFU, FOXP1 / Fold change vs veh, FOXP1 / RFU, CARD8 / Fold change vs veh, CARD8 / RFU, STRN3 / Fold change vs veh, STRN3 / RFU, ADK / Fold change vs veh, ADK / RFU, RASSF2 / Fold change vs veh, RASSF2 / RFU, WIPF1 / Fold change vs veh, WIPF1 / RFU, LARP1B / Fold change vs veh, LARP1B / RFU, RASA1 / Fold change vs veh, RASA1 / RFU, RB1 / Fold change vs veh, RB1 / RFU, PPFIA1 / Fold change vs veh, PPFIA1 / RFU, MAT2A / Fold change vs veh, MAT2A / RFU, CCT5 / Fold change vs veh, CCT5 / RFU, WDR92 / Fold change vs veh, WDR92 / RFU, CUX1 / Fold change vs veh, CUX1 / RFU, TTC7A / Fold change vs veh, TTC7A / RFU, TMEM135 / Fold change vs veh, TMEM135 / RFU, DEPTOR / Fold change vs veh, DEPTOR / RFU, CPM / Fold change vs veh, CPM / RFU, DNAJB6 / Fold change vs veh, DNAJB6 / RFU, CACNA2D3 / Fold change vs veh, CACNA2D3 / RFU, DTX4 / Fold change vs veh, DTX4 / RFU, TFCP2 / Fold change vs veh, TFCP2 / RFU, GMCL1 /// GMCL1P1 / Fold change vs veh, GMCL1 /// GMCL1P1 / RFU, AEBP2 / Fold change vs veh, AEBP2 / RFU, SNHG1 /// SNORD22 /// SNORD25 /// SNORD26 /// SNORD27 /// SNORD28 /// SNORD29 /// SNORD31 / Fold change vs veh, SNHG1 /// SNORD22 /// SNORD25 /// SNORD26 /// SNORD27 /// SNORD28 /// SNORD29 /// SNORD31 / Fold change (Aza/veh), C12orf56 (ProbeSet 11735607_a_at) / Fold change (ACY-1035/veh), C12orf56 (ProbeSet 11735607_a_at) / Fold change (Aza/veh), FGFR1OP (ProbeSet 11751329_s_at) / Fold change (ACY-1035/veh), FGFR1OP (ProbeSet 11751329_s_at) / Fold change (Aza/veh), VPS36 (ProbeSet 11739960_a_at) / Fold change (ACY-1035/veh), VPS36 (ProbeSet 11739960_a_at) / RFU SYPL1 (11715823_x_at) / Fold change /veh SYPL1 (11715823_x_at) / RFU IGFBP7 (11715501_s_at) / Fold change /veh IGFBP7 (11715501_s_at) / RFU REEP3 (11722064_at) / Fold change /veh REEP3 (11722064_at) / RFU IGLL1 (11728026_x_at) / Fold change /veh IGLL1 (11728026_x_at): dose or concentration left out as unconfirmed
Conditions: ProbeSet 11721521_at; LIST B

## Nc1ccc(-c2cccs2)cc1NC(=O)c1ccc2c(c1)cc(C1CC1)n2CCN1CCOCC1 [ACY-1035]
  RFU, ZDHHC17: 49.20 RFU
